Consider one compound from patent publication US11771663B2, “Epinephrine spray formulations” (HIKMA PHARMACEUTICALS USA INC., priority 2015, dated 2023).

Each structure is given as a SMILES string.

The nature of data set [1]: Mini-pig pharmacokinetics, single-dose crossover, plasma epinephrine by LC-MS/MS. Type of data set: in vivo, Yucatan mini-pigs. The settings on record: male, Yucatan, 0.3 mg per animal, minipig, single-dose intramuscular (IM), read-out: geometric mean plasma concentration of epinephrine. The protocol: Protocol design was a single-dose crossover study. Five healthy male Yucatan mini-pigs weighing approximately eighty to ninety-five kilograms each were administered epinephrine formulations. The minipigs were fasted overnight till four hours' post administration. Each dosing was followed by a washout period of at least one-week. Blood samples were taken prior to administration and 2, 5, 10, 15, 20, 30, 45 min, 1, 1.5, 2, 4, and 24 hours' post dose. Minipig plasma samples were measured for epinephrine concentrations via liquid chromatography-tandem mass spectrometry.

Data set [2] is described as follows: Rabbit pharmacokinetics, single-dose non-crossover, plasma epinephrine by LC-MS/MS. It counts as in vivo, New Zealand white rabbits. The settings on record: male, New Zealand white, intramuscular, 0.03 mg per animal, single-dose IM. The protocol: Protocol design was a single-dose non-crossover study. Pharmacokinetics of a number of epinephrine formulations were evaluated in healthy male New Zealand white rabbits weighing approximately two to three kilograms. For dosing of each formulation, five or six rabbits were used. The rabbits were fasted overnight till four hours' post administration. Blood samples were taken prior to administration and 5, 10, 15, 20, 30, 40 min, 1, 1.5, 2, 4, and 5 hours' post dose. Rabbit plasma samples were measured for epinephrine concentrations via liquid chromatography-tandem mass spectrometry. Formulation #R9 existed as a spray-dried powder of epinephrine bitartrate salt. For the evaluation of #R9, approximately 21.83 mg of powder was dosed to each animal, as an equivalent dose of 12 mg epinephrine.

Regarding `CNC[C@H](O)c1ccc(O)c(O)c1` [epinephrine, Epinephrine], the results for the concentration at 5 min in data set [1] and in data set [2] were 0.046 ng/mL and 0.988 ng/mL, respectively.
